Holding throughout (format): physicochemical
Data set [1] in a line: DTPA challenge of ^225Ac complexes, iTLC-SG. As to conditions: 30 min; for chelated Ac-225 (iTLC) after DTPA: reaction mixture with 10 mM DTPA (pH 6.5); for free ^225Ac by iTLC-SG after DTPA challenge / free Ac-225 at the solvent front of the iTLC-SG after DTPA challenge: free chelator, 10 mM DTPA; for free ^225Ac by iTLC-SG after DTPA challenge: high ^225Ac/chelator ratio (50 μCi); for free Ac-225 at the solvent front of the iTLC-SG after DTPA challenge: low ^225Ac/chelator ratio. The method, then:
DTPA challenge: 0.5 μL of the reaction mixture was mixed with 15 μL of 10 mM DTPA solution and the mixture was incubated for 30 min.
DTPA challenge: 10 μL of fraction #3 collected after PD-10 column was mixed with 15 μL of 10 mM DTPA solution (pH 6.5), and incubated for 30 min.
0.5 μL of reaction mixture was mixed with 15 μL 10 mM DTPA (pH 6.5) and incubated for 30 min.

Data set [2] in a line: ^225Ac(III) chelation / labeling, iTLC-SG analysis. Particulars: pH ~6.5; for chelated Ac-225 (iTLC): free chelator (2 mg/mL 3 μL; ethoxylmethyl isomers 1 mg/mL 1 μL), 30 μCi ^225Ac, 37° C. 2 h; for free ^225Ac by iTLC-SG before DTPA challenge / free Ac-225 at the solvent front of the iTLC-SG: free chelator; for free ^225Ac by iTLC-SG before DTPA challenge: high ^225Ac/chelator ratio (50 μCi), room temperature 1.5-2 hr; for free Ac-225 at the solvent front of the iTLC-SG: low ^225Ac/chelator ratio (30 μCi), room temperature 1-2 hr.

A short description of data set [3]: Chelation test with Lanthanum (III) (HPLC, LCMS). As to conditions: La(NO3)3, room temperature. The method, then:
HPLC method: XBridge C18 3.5 μm 150×4.6 mm, 100 Å column; Mobile phase A: 0.1% TFA in H2O, B: 0.1% TFA in ACN; gradient 10% to 30% B in 0-20 min, gradient 30% to 100% B in 20-20.1 min, isocratic at 100% B in 20.1-25 min, gradient 100% to 10% B in 25-25.1 min, isocratic at 10% B in 25.1-30 min; postrun 3 min; flow rate 1 mL/min; column temperature 30° C.; injection volume 5 uL. Synthesis and Characterization of H2bp18c6-Benzyl-Phenyl
An aqueous solution of H2bp18c6-benzyl-isopentyl in water (˜3 mg/mL=˜5 mM, 20 μL, 0.1 μmol) was treated with La(NO3)3 (10 mM in metal free water, 50 μL, 0.5 μmol). An aqueous solution of H2bp18c6-benzyl-phenyl in water (˜3 mg/mL=˜5 mM, 20 μL, 0.1 μmol) was treated with La(NO3)3 (10 mM in metal free water, 50 μL, 0.5 μmol). After thorough mixing, each solution was analyzed by LCMS and HPLC to determine whether complexes of the chelator and La^3+ formed.
Complex formation was also confirmed by LCMS.

“Also recorded” adds a separate entry of the source.

As for `O=C(O)c1cccc(CN2CCOCCOCCN(Cc3cccc(C(=O)O)n3)CCO[C@@H]3CCC[C@@H]3OCC2)n1`, the “chelated Ac-225 (iTLC) after DTPA” value in data set [1] was determined as 99%. In addition, in data set [2], the “chelated Ac-225 (iTLC)” value amounted to 99%.
As to `O=C(O)c1cccc(CN2CCOCCOCCN(Cc3cccc(C(=O)O)n3)CCO[C@@H]3CCCC[C@@H]3OCC2)n1` [H2bp18c6-cis-cyclohexyl-fused Macrocycle], the “chelated Ac-225 (iTLC) after DTPA” value in data set [1] is recorded as 99%. The “chelated Ac-225 (iTLC)” value in data set [2] is 99%.
In the case of `O=C(O)c1cccc(CN2CCOCCOCCN(Cc3cccc(C(=O)O)n3)CCO[C@@H]3CCC[C@H]3OCC2)n1`, the “chelated Ac-225 (iTLC) after DTPA” value in data set [1] was determined as 99%. Besides, in data set [2], the “chelated Ac-225 (iTLC)” value is recorded as 99%.
With `CCOC[C@H]1COCCN(Cc2cccc(C(=O)O)n2)CCOCCOCCN(Cc2cccc(C(=O)O)n2)CCO1` (single isomer, unassigned) [H2bp18c6-off Macrocycle-ethoxylmethyl isomer I], the “chelated Ac-225 (iTLC) after DTPA” value in data set [1] came to 99%. Further, the “chelated Ac-225 (iTLC)” value in data set [2] was determined as 99%.
Consider `O=C(O)c1cccc(CN2CCOCCOCCN(Cc3cccc(C(=O)O)n3)CCO[C@@H]3CCCC[C@H]3OCC2)n1`, for which the “chelated Ac-225 (iTLC) after DTPA” value in data set [1] is reported as 99%. Besides, the “chelated Ac-225 (iTLC)” value in data set [2] was 99%.
As for `O=C(O)c1cccc(CN2CCOCCOCCN(Cc3cccc(C(=O)O)n3)CCO[C@H](CO)COCC2)n1` (single isomer, unassigned) [H2bp18c6-off Macrocycle-hydroxylmethyl isomer II], the “chelated Ac-225 (iTLC) after DTPA” value in data set [1] was found to be 99%. For the same compound, the “chelated Ac-225 (iTLC)” value in data set [2] is 99%.
As to `CC(C)CCC(c1cccc(C(=O)O)n1)N1CCOCCOCCN(Cc2cccc(C(=O)O)n2)CCOCCOCC1` (centres unmarked), the “chelation with La^3+ (shift in HPLC peak retention time)” value in data set [3] was “rapid chelation”. Further, the “chelation with La^3+ (shift in HPLC peak retention time)” value in data set [3] (listed as isopentane-H2bp18c6) is “rapid and stoichiometric chelation”. Moreover, in data set [1], the “free ^225Ac by iTLC-SG after DTPA challenge” value was “No free ^225Ac was detected” and the “free Ac-225 at the solvent front of the iTLC-SG after DTPA challenge” value is given as “No radioactivity was observed at the solvent front”. Further, in data set [2], the “free ^225Ac by iTLC-SG before DTPA challenge” value is “No free ^225Ac was detected” and the “free Ac-225 at the solvent front of the iTLC-SG” value is recorded as “No radioactivity was observed at the solvent front”.
For the compound `O=C(O)c1cccc(CN2CCOCCOCCN(C(c3ccccc3)c3cccc(C(=O)O)n3)CCOCCOCC2)n1` (centres unmarked) [H2bp18c6-benzyl-phenyl], the “chelation with La^3+ (shift in HPLC peak retention time)” value in data set [3] was “rapid and stoichiometric chelation”. For the same compound, in data set [1], the “free ^225Ac by iTLC-SG after DTPA challenge” value was “No free ^225Ac was detected” and the “free Ac-225 at the solvent front of the iTLC-SG after DTPA challenge” value was “No free ^225Ac was detected after DTPA challenge”. In addition, in data set [2], the “free ^225Ac by iTLC-SG before DTPA challenge” value is “No free ^225Ac was detected” and the “free Ac-225 at the solvent front of the iTLC-SG” value is “No free ^225Ac ion was detected; also recorded: No radioactivity was observed at the solvent front”.
As to `O=C(NCCC(=O)N1Cc2ccccc2C#Cc2ccccc21)c1ccc(C(c2cccc(C(=O)O)n2)N2CCOCCOCCN(Cc3cccc(C(=O)O)n3)CCOCCOCC2)cc1` (centres unmarked) [H2bp18c6-benzyl-phenyl-DBCO], the “free Ac-225 at the solvent front of the iTLC-SG after DTPA challenge” value in data set [1] is reported as “No radioactivity was detected at the solvent front”. Further, the “free Ac-225 at the solvent front of the iTLC-SG” value in data set [2] is recorded as “No radioactivity activity was observed at the solvent front”.
Regarding `CCOC[C@@H]1COCCN(Cc2cccc(C(=O)O)n2)CCOCCOCCN(Cc2cccc(C(=O)O)n2)CCO1` (single isomer, unassigned) [H2bp18c6-off Macrocycle-ethoxylmethyl isomer II], the “chelated Ac-225 (iTLC) after DTPA” value in data set [1] is 99%. The “chelated Ac-225 (iTLC)” value in data set [2] is given as 99%.
As for `O=C(O)c1cccc(CN2CCOCCOCCN(Cc3cccc(C(=O)O)n3)CCO[C@@H](CO)COCC2)n1` (single isomer, unassigned) [H2bp18c6-off Macrocycle-hydroxylmethyl isomer I], the “chelated Ac-225 (iTLC) after DTPA” value in data set [1] was determined as 99%. Moreover, the “chelated Ac-225 (iTLC)” value in data set [2] was 99%.
